Measured values reported in patent US20250230193A1, “CYCLIC COMPOUND HAVING SELECTIVE KRAS INHIBITORY EFFECT ON HRAS AND NRAS” (CHUGAI SEIYAKU KABUSHIKI KAISHA, priority 2022, published 2025).
Where a SMILES comes first, the peptide text is derived from it. Bridges are numbered along the chain shown (N, C = ends). [ ]: non-standard residue; d: D form. The star is where a group is joined. hPhe(3-Cl-4-CF3) = N[C@@H](CCc1ccc(C(F)(F)F)c(Cl)c1)C(=O)O; NPrPhe(4-CF3) = CCCN[C@@H](Cc1ccc(C(F)(F)F)cc1)C(=O)O; NMeGly(cPent) = CN[C@H](C(=O)O)C1CCCC1; Pro(4,4-F2) = O=C(O)[C@@H]1CC(F)(F)CN1; Hyp = O=C(O)[C@@H]1C[C@@H](O)CN1; NMeD = CN[C@@H](CC(=O)O)C(=O)O; NMeL = CN[C@@H](CC(C)C)C(=O)O; Morpholide = C1CN(*)CCO1; NMeA = CN[C@@H](C)C(=O)O; Ac5c = NC1(C(=O)O)CCCC1; Aze = O=C(O)[C@@H]1CCN1; Ac4c = NC1(C(=O)O)CCC1; Sar = CNCC(=O)O

Tests used:
[1] = target: GDP-bound NRAS wild-type protein (Homo sapiens, UniProt P01111); experiment: Binding to NRAS by surface plasmon resonance (SPR), Single Cycle Kinetics; details: for NRAS/KRAS (ratio of KD value with respect to NRAS to KD value with respect to KRAS): GDP-bound NRAS wild-type vs GDP-bound KRAS wild-type
[2] = target: GDP-bound HRAS wild-type protein (Homo sapiens, UniProt P01112); experiment: Binding to HRAS by surface plasmon resonance (SPR), Single Cycle Kinetics; details: for HRAS/KRAS (ratio of KD value with respect to HRAS to KD value with respect to KRAS): GDP-bound HRAS wild-type vs GDP-bound KRAS wild-type
Chain of GDP-bound HRAS wild-type protein (P01112 whole entry): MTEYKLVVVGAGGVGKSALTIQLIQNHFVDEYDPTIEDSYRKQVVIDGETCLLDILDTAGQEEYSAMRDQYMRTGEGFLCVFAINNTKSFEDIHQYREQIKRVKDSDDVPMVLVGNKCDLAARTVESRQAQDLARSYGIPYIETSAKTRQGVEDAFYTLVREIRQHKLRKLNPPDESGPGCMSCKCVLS

Chain of GDP-bound NRAS wild-type protein (P01111 whole entry): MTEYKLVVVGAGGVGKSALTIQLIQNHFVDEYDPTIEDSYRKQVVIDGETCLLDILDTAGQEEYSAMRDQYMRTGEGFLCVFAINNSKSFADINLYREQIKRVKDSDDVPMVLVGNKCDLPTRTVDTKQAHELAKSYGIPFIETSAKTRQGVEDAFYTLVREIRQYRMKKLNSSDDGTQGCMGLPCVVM

CCO[C@@H]1C[C@H]2C(=O)NC3(CCC3)C(=O)N(C)[C@@H](CC(F)F)C(=O)N(C)[C@H](C(=O)N3CCOCC3)CC(=O)N(C)[C@@H](CC(C)C)C(=O)N[C@@H]([C@@H](C)CC)C(=O)N(C)CC(=O)N(C)[C@H]3CCCCCN(C3=O)[C@@H](Cc3ccc(C(F)(F)F)cc3)C(=O)N(C)CC(=O)N[C@@H](CCc3cc(F)c(C(F)(F)F)c(F)c3)C(=O)N2C1 [PP0822] was tested, and the “NRAS/KRAS (ratio of KD value with respect to NRAS to KD value with respect to KRAS)” value ([1]; KD ratio, SPR) was “B (a compound having 3 or more and less than 10 is denoted as B)” and the “HRAS/KRAS (ratio of KD value with respect to HRAS to KD value with respect to KRAS)” value ([2]; KD ratio, SPR) was “B (a compound having 3 or more and less than 10 is denoted as B)”.

CCO[C@@H]1C[C@H]2C(=O)NC3(CC(C)(C)C3)C(=O)N(C)[C@@H](C(CC)CC)C(=O)N(C)[C@H](C(=O)N(C)C)CC(=O)N(C)[C@@H](CC(C)C)C(=O)N[C@@H]([C@@H](C)CC)C(=O)N(C)CC(=O)N(C)[C@H]3C/C=C\CCN(C3=O)[C@@H](Cc3ccc(C)cc3)C(=O)N(C)CC(=O)N[C@@H](CCc3ccc(Cl)c(Cl)c3)C(=O)N2C1 [PP2185] was tested, and the “NRAS/KRAS (ratio of KD value with respect to NRAS to KD value with respect to KRAS)” value ([1]; SPR) was “AA (a compound having 20 or more is denoted as AA)” and the “HRAS/KRAS (ratio of KD value with respect to HRAS to KD value with respect to KRAS)” value ([2]; SPR) was “A (a compound having 10 or more and less than 20 is denoted as A)”.

CCO[C@@H]1C[C@H]2C(=O)NC3(CCC3)C(=O)N(C)[C@@H](C3CCCC3)C(=O)N(C)[C@H](C(=O)N(C)C)CC(=O)N(C)[C@@H](CC)C(=O)N[C@@H]([C@@H](C)CC)C(=O)N3CC[C@H]3C(=O)N(C)[C@H]3C/C=C\CCN(C3=O)[C@@H](Cc3ccc(C(F)(F)F)cc3)C(=O)N(C)CC(=O)N[C@@H](CCc3cc(F)c(C(F)(F)F)c(F)c3)C(=O)N2C1 [PP0984] was tested, and the “NRAS/KRAS (ratio of KD value with respect to NRAS to KD value with respect to KRAS)” value ([1]; KD ratio, SPR) was “A (a compound having 10 or more and less than 20 is denoted as A)” and the “HRAS/KRAS (ratio of KD value with respect to HRAS to KD value with respect to KRAS)” value ([2]; KD ratio, SPR) was “A (a compound having 10 or more and less than 20 is denoted as A)”.

For CCCN1C(=O)CN(C)C(=O)[C@@H]2CCN2C(=O)[C@H]([C@@H](C)CC)NC(=O)[C@H](CC(C)C)N(C)C(=O)C[C@@H](C(=O)N2CCOCC2)N(C)C(=O)[C@H](C2CCCC2)N(C)C(=O)C2(CCCC2)NC(=O)[C@@H]2C[C@@H](OC)CN2C(=O)[C@H](CCc2ccc(C(F)(F)F)c(Cl)c2)NC(=O)CN(C)C(=O)[C@@H]1Cc1ccc(C(F)(F)F)cc1 [PP0309] ([NMeL]I[Aze][Sar][NPrPhe(4-CF3)][Sar][hPhe(3-Cl-4-CF3)][Hyp](Me)[Ac5c][NMeGly(cPent)][NMeD]-Morpholide; lactam N-11), the “NRAS/KRAS (ratio of KD for GDP-bound NRAS wild-type to KD for KRAS)” value ([1]; SPR) was “B (a compound having 3 or more and less than 10 is denoted as B)” and the “HRAS/KRAS (ratio of KD for GDP-bound HRAS wild-type to KD for KRAS)” value ([2]; SPR) was “B (a compound having 3 or more and less than 10 is denoted as B)”.

In the case of CCC[C@H]1C(=O)N[C@@H]([C@@H](C)CC)C(=O)N(C)CC(=O)N(C)[C@H]2C/C=C\CCN(C2=O)[C@@H](Cc2ccc(C(F)(F)F)cc2)C(=O)N(C)CC(=O)N[C@@H](CCc2cc(F)c3c(c2)CCC3)C(=O)N2C[C@H](OCC)C[C@H]2C(=O)NC2(CC(C)(C)C2)C(=O)N(C)[C@@H](C2CCCC2)C(=O)N(C)[C@H](C(=O)N(C)C)CC(=O)N1C [PP2849], the “NRAS/KRAS (ratio of KD value with respect to GDP-bound NRAS wild-type protein to KD value with respect to KRAS)” value ([1]; class symbols) was “A (a compound having 10 or more and less than 20 is denoted as A)” and the “HRAS/KRAS (ratio of KD value with respect to GDP-bound HRAS wild-type protein to KD value with respect to KRAS)” value ([2]; class symbols) was “A (a compound having 10 or more and less than 20 is denoted as A)”.

In the case of CCO[C@@H]1C[C@H]2C(=O)NC3(CCC3)C(=O)N(C)[C@@H](C3CCCC3)C(=O)N(CCC3CCCC3)[C@H](C(=O)N3CCOCC3)CC(=O)N(C)[C@@H](CC)C(=O)N[C@@H]([C@@H](C)CC)C(=O)N(C)CC(=O)N(C)[C@H]3C/C=C\CCN(C3=O)[C@@H](Cc3ccc(C(F)(F)F)cc3)C(=O)N(C)CC(=O)N[C@@H](CCc3cc(F)c(C(F)(F)F)c(F)c3)C(=O)N2C1 [PP0981], the “NRAS/KRAS (ratio of KD value with respect to NRAS to KD value with respect to KRAS)” value ([1]; KD ratio, SPR) was “AA (a compound having 20 or more is denoted as AA)” and the “HRAS/KRAS (ratio of KD value with respect to HRAS to KD value with respect to KRAS)” value ([2]; KD ratio, SPR) was “A (a compound having 10 or more and less than 20 is denoted as A)”.

For CCO[C@@H]1C[C@H]2C(=O)NC3(CC(C)(C)C3)C(=O)N(C)[C@@H](C(CC)CC)C(=O)N(C)[C@H](C(=O)N(C)C)CC(=O)N(C)[C@@H](C(C)C)C(=O)N[C@@H]([C@@H](C)CC)C(=O)N(C)CC(=O)N(C)[C@H]3C/C=C\CCN(C3=O)[C@@H](Cc3ccc(C)cc3)C(=O)N(C)CC(=O)N[C@@H](CCc3ccc(Cl)c(Cl)c3)C(=O)N2C1 [PP2122], the “NRAS/KRAS (ratio of KD value with respect to NRAS to KD value with respect to KRAS)” value ([1]; SPR) was “AA (a compound having 20 or more is denoted as AA)” and the “HRAS/KRAS (ratio of KD value with respect to HRAS to KD value with respect to KRAS)” value ([2]; SPR) was “A (a compound having 10 or more and less than 20 is denoted as A)”.

For CC[C@H](C)[C@@H]1NC(=O)[C@H](CC(C)C)N(C)C(=O)C[C@@H](C(=O)N2CCOCC2)N(C)C(=O)[C@H](C2CCCC2)N(C)C(=O)C2(CCC2)NC(=O)[C@@H]2[C@H]3C[C@H]3CN2C(=O)[C@H](CCc2cc(F)c(C(F)(F)F)c(F)c2)NC(=O)CN(C)C(=O)[C@H](Cc2ccc(C(F)(F)F)cc2)N2CCCC[C@@H](C2=O)N(C)C(=O)CN(C)C1=O [PP0810], the “NRAS/KRAS (ratio of KD value with respect to NRAS to KD value with respect to KRAS)” value ([1]; KD ratio, SPR) was “B (a compound having 3 or more and less than 10 is denoted as B)” and the “HRAS/KRAS (ratio of KD value with respect to HRAS to KD value with respect to KRAS)” value ([2]; KD ratio, SPR) was “B (a compound having 3 or more and less than 10 is denoted as B)”.

For CCCN1C(=O)[C@@H]2CCN2C(=O)[C@H](C)N(C)C(=O)[C@H]([C@@H](C)CC)NC(=O)[C@H](CC(C)C)N(C)C(=O)C[C@@H](C(=O)N2CCOCC2)NC(=O)[C@H](C2CCCC2)N(C)C(=O)C2(CCC2)NC(=O)[C@@H]2CC(F)(F)CN2C(=O)[C@H](CCc2ccc(C(F)(F)F)c(Cl)c2)NC(=O)CN(C)C(=O)[C@@H]1Cc1ccc(C(F)(F)F)cc1 [PP0346] ([NMeL]I[NMeA][Aze][NPrPhe(4-CF3)][Sar][hPhe(3-Cl-4-CF3)][Pro(4,4-F2)][Ac4c][NMeGly(cPent)]D-Morpholide; lactam N-11), the “NRAS/KRAS (ratio of KD for GDP-bound NRAS wild-type to KD for KRAS)” value ([1]; SPR) was “C (A compound having a KD ratio of 0.1 or more and less than 3 is denoted as C)” and the “HRAS/KRAS (ratio of KD for GDP-bound HRAS wild-type to KD for KRAS)” value ([2]; SPR) was “B (a compound having 3 or more and less than 10 is denoted as B)”.

For CCO[C@@H]1C[C@H]2C(=O)NC3(CCC3)C(=O)N(C)[C@@H](C3CCCC3)C(=O)N(C)[C@H](C(=O)N(C)C)CC(=O)N(C)[C@@H](CC)C(=O)N[C@@H]([C@@H](C)CC)C(=O)N(C)CC(=O)N(C)[C@H]3CCCCN(C3=O)[C@@H](Cc3ccc(C(F)(F)F)cc3)C(=O)N(C)CC(=O)N[C@@H](CCc3cc(F)c(C(F)(F)F)c(F)c3)C(=O)N2C1 [PP0693], the “NRAS/KRAS (ratio of KD value with respect to GDP-bound NRAS wild-type protein to KD value with respect to KRAS)” value ([1]; SPR) was “C (A compound having a KD ratio of 0.1 or more and less than 3 is denoted as C)” and the “HRAS/KRAS (ratio of KD value with respect to GDP-bound HRAS wild-type protein to KD value with respect to KRAS)” value ([2]; SPR) was “C (A compound having a KD ratio of 0.1 or more and less than 3 is denoted as C)”.

For CCO[C@@H]1C[C@H]2C(=O)NC3(CCC3)C(=O)N(C)[C@@H](C3CCCC3)C(=O)N3CCC[C@@H]3CC(=O)N(C)[C@@H](CC)C(=O)N[C@@H]([C@@H](C)CC)C(=O)N(C)CC(=O)N(C)[C@H]3C/C=C\CCN(C3=O)[C@@H](Cc3ccc(C(F)(F)F)cc3)C(=O)N(C)CC(=O)N[C@@H](CCc3cc(F)c(C(F)(F)F)c(F)c3)C(=O)N2C1 [PP1097], the “NRAS/KRAS (ratio of KD value with respect to NRAS to KD value with respect to KRAS)” value ([1]; KD ratio, SPR) was “B (a compound having 3 or more and less than 10 is denoted as B)” and the “HRAS/KRAS (ratio of KD value with respect to HRAS to KD value with respect to KRAS)” value ([2]; KD ratio, SPR) was “B (a compound having 3 or more and less than 10 is denoted as B)”.
